The source of these data is patent US12064453B2, “Biochemical and biomechanical conditioning for enhancing personalized mesenchymal stem cell therapies” (BOARD OF REGENTS, THE UNIVERSITY OF TEXAS SYSTEM, priority 2017, dated 2024).

For assay [1], the system named is Human mesenchymal stem cells (hMSCs). In words: Long term conditioning of hMSCs with biochemical factors and mechanical load, immunostaining. In kind it is cell-based. Particulars: seven days; for paxillin levels: with and without load (0.1 Hz, 7.5% strain, 4 hours daily); for endothelial marker vWF: in combination with mechanical loading.
Procedure: Human mesenchymal stem cells (hMSCs; Millipore) were cultured in low glucose DMEM medium supplemented with 15% fetal bovine serum, L-glutamine, and penicillin/streptomycin. Following trypsinization, cells were seeded on the membranes at 4,000 cells per cm^2 before mechanical loading. Immunocytochemical staining. Cells were fixed in 4% paraformaldehyde in PBS for 10 min followed by washing and permeabilization with 0.1% Triton X-100 PBS for 5 min. Next, samples were blocked with 1% BSA 5% FBS in PBS for 40 min. After washing, cells were incubated with primary antibodies (Table 1) overnight at 4° C. The next day, samples were washed in 1% BSA in PBS and was incubated with secondary antibodies and DAPI staining for 2 hours in a light protected environment. For actin staining, an alternative step was used in which samples were treated with Alexa 594 conjugated phalloidin for 30 min. Cells were washed thoroughly before they were imaged. For standard fluorescent microscopy, Zeiss Observerl was used. […] Long term conditioning of hMSCs using biochemical factors. For long term loading, cells were exposed to media containing small biomolecules (Table 3). They were loaded for 4 hours every day for 7 days under sine and brachial waveform at 0.1 Hz and 7.5% maximum strain and compared against those in static culture. Media containing the biomolecules were replaced on day 3 and day 5, with the exception of 5-Aza containing media. Due to the cytotoxic nature of 5-Aza, it was replaced with normal media on day 1. On day 6, media was replaced with 0.5% FBS containing media post loading. Following long term loading on day 7, the condition media was collected and further assays were performed on the cells. To examine the ability of long term application of mechanical loading in conditioning MSCs, the cells were treated with treatments known to cause differentiation into vascular/cardiovascular phenotypes including 5-azacitidine (5-aza), Dexamethasone with insulin (Dex+Ins), PDGF-BB, hydrocortisone (Hydrocort), EGF, VEGF-A, and TGF-β1.
In assay [2] the test system is TCF/LEF. Particulars: MSCs; loading at 0.1 Hz with VEGF treatment; 10 ng/ml; 8 hours. How it is done:
(§1) Transcription factor activity assay. The cells were transduced with luminescent reporter vectors for target transcription factors. Briefly, for each target transcription factor, freshly passaged hMSCs were treated with luciferase reporter expressing lentiviruses (Qiagen). For the drug screening assay, hMSCs were treated with biomolecules in the kinase inhibitor library (Millipore Calbiochem) 1 hour prior to loading. After mechanical loading, the cells were lysed and the relative luminescent signal was measured using the luciferase assay kit (Promega) with FlexStation-3 plate reader (Molecular Devices). For each plate, average from three individual readings was reported.
(§2) A major limitation of previous studies in mechanobiology is the limited ability to investigate a variety of conditions simultaneously. This gap in capability leads to an incomplete exploration of the range of mechanical conditions and greatly reduces the ability to examine synergy between applied mechanical forces and biochemical signals. Mesenchymal stem cells were transduced with lentiviruses expressing luciferase reporter constructs for transcription factors including FOXO, TCF/LEF, Smad2/3 and SRE and selected these to obtain a stable reporter cell line. […]

Assay [3] deals with FOXO. Particulars: MSCs; VEGF at 2 Hz frequency of loading (5% maximal strain) or at 1 Hz; 10 ng/ml; 8 hours. The method, then:
as §1, §2

Assay [4] relates to Human mesenchymal stem cells (hMSCs). Particulars: long term conditioning.
Source text: Fluorescence Activated Cell Sorting (FACS). After long term loading, the cells were then detached from the loading plate using accutase (Sigma) and was labeled with fluorescent antibodies according the BD Bioscience FACS staining kit (BD 562725) for cardiovascular phenotypes such as endothelial, smooth muscle, and pericyte phenotypes. […] Fortessa of UT Austin Core Facility was used to measure population fluorescent signals.
To address these issues, a combinatorial set of mechanical loading and biochemical or pharmacological treatments were applied to MSCs and the phenotype assessed using multiple markers using FACS (FIG. 5A).
The subject of assay [5] is Smad2/3. In words: Smad transcription factor activity, multi-strain mechanical loading. Particulars: MSCs; 0.1 Hz, 7.5% strain, 24 hours, co-treatment. It counts as cell-based, human. How it is done: Transcription factor activity assay.
To perform a high throughput assay of the dependence of magnitude of mechanical strain on the activation of Smad2/3, the heights of the individual pistons were adjusted to apply mechanical strains over a range of 0 to 17.5% strain, in increments of 2.5% strain (FIGS. 2B-D). […] The regulation of differentiation-related pathways in MSCs was examined by loading the cells for 24 hours under multi-strain conditions at 0.1 Hz and performing immunostaining. A maximal increase in nuclear to cytoplasmic Yap/Taz was found at 7.5% strain and maximal nuclear localization of Smad2/3 at 10-12.5% strain (FIG. 2F). In addition, there was a maximal increase in α-SMA expression in the range of strains from 7.5-12.5% strain (FIG. 2G). At 10-15% strain, there was a maximal increase in polymerized actin and paxillin (FIG. 2G). The mechanical loading was repeated at 7.5% strain with 0.1 Hz frequency using both sine and brachial waveforms and then performed western blotting. With brachial waveform loading, increases in PECAM-1 expression were found and as well as a reduction in α-SMA expression and an increase in p-Smad 2/3 (FIGS. 2H, I). Overall, these studies support maximal activation of Smad signaling in MSCs with 0.1 Hz of loading at 7.5% strain, with an increase in endothelial-like phenotype with brachial loading.

Assay [6] has as its system Human mesenchymal stem cells (hMSCs). In words: Oil Red O or Alizarin Red staining for adipogenic and osteogenic differentiation. In kind it is cell-based.
Procedure: Long term conditioning of hMSCs using biochemical factors. For long term loading, cells were exposed to media containing small biomolecules (Table 3). They were loaded for 4 hours every day for 7 days under sine and brachial waveform at 0.1 Hz and 7.5% maximum strain and compared against those in static culture. Media containing the biomolecules were replaced on day 3 and day 5, with the exception of 5-Aza containing media. Due to the cytotoxic nature of 5-Aza, it was replaced with normal media on day 1. On day 6, media was replaced with 0.5% FBS containing media post loading. Following long term loading on day 7, the condition media was collected and further assays were performed on the cells. […] To test for adipogenic and osteogenic differentiation, the cells were also stained using Oil Red O or Alizarin Red dye.

In the case of `Nc1ncn([C@@H]2O[C@H](CO)[C@@H](O)[C@H]2O)c(=O)n1` [5-aza, 5-Azacytidine], the PECAM-1 entry in assay [1] (in combination with mechanical load) is “increased”. Further, the paxillin levels result in assay [1] is listed as “increased paxillin levels”.

For the compound VEGF, the “TCF/LEF transcription factor activity” value in assay [2] is “synergistically activated”. Besides, in assay [3], the “FOXO transcription factor activity” value is on record as “reduction in FOXO activity”. In assay [1], the “endothelial marker vWF” value is “to a lesser extent” and the paxillin levels result is reported as “increased paxillin levels”. Moreover, in assay [4], the “endothelial lineage defined by the FACS protocol” value is on record as “did not increase”.

Regarding “EGF [growth factor, Sigma-Aldrich E9644, 10 ng/mL]”, in assay [1], the “endothelial marker vWF” value is recorded as “to a lesser extent” and the paxillin levels entry is “increased paxillin levels”.

Consider TGF-β1, for which the “Smad transcription factor activity” value in assay [5] is on record as “optimal synergistic activation”. The figures for the “Osteogenesis (Alizarin Red)” value in assay [6] (static conditions) and in assay [6] (with mechanical loading) were “observed” and “did not occur”, respectively. Moreover, the paxillin levels entry in assay [1] is on record as “not increased”. In assay [1] (with mechanical loading, in comparison to other treatment groups), the “nuclear localization of Yap/Taz” value is listed as “markedly reduced”.
